Source: US20060140858A1, “Drug pre-targeting by means of bi-specific antibodies and hapten constructs comprising a carrier peptide and the active agent(s)” (Immunomedics, Inc., priority 2002, published 2006)
Where two headings read alike, the source gives them in different places. Each block holds one compound with its values, some of them ahead of it. *1 amine or outer side, *2 acyl side, *3 side chain or, on linkers, in order; H or OH if unused. Where a SMILES comes first, the peptide text is derived from it. Side-chain parts run from the residue outwards. The star is where a group is joined. DOTA = O=C(O)CN1CCN(CC(=O)O)CCN(CC(=O)*)CCN(CC(=O)O)CC1; DTPA = O=C(O)CN(CCN(CC(=O)O)CC(=O)O)CCN(CC(=O)O)CC(=O)*; NH(2-(imidazol-4-yl)ethyl) = c1ncc(CCN*)[nH]1; Suc = O=C(CCC(=O)[*:2])[*:1]; X1 = NC(=S)NN=CC(=O)*

Experiments:
[1] = Control group: 99m-Tc-IMP-192 alone; type: in vivo, nude mice; conditions: female, nude (Taconic NCRNU), mouse, total radioactivity
[2] = Clearance of 99m-Tc-IMP-192 in BALB/c mice; type: in vivo
[3] = Pretargeting: 125-I-hMN-14 × 734 bsAb, 24 h later 99m-Tc-IMP-192, biodistribution; type: in vivo, Nude mice; conditions: female, mouse, total radioactivity; for tissue uptake at 0.5 h: 30 min post peptide; for tissue uptake at 1 h: 1 h post peptide; for tissue uptake at 3 h: 3 h post peptide; for tissue uptake at 24 h: 24 h post peptide
[4] = type: in vitro ADME, mouse
Description: The peptide was monitored as described above by HPLC.

[5] = Cys Challenge 1 mM in 0.05 M phosphate pH 7.5 Room Temp., 1 hr
[6] = Saline Dilution Room Temp., 19 hr
[7] = Saline Dilution Room Temp., […]

Origin (ITLC 24 hr Saturated NaCl) (Cys Challenge): 91.3% Origin
Solvent Front (ITLC 24 hr Saturated NaCl) (Cys Challenge): 7.4% Solvent
Peptide (HPLC) [5]: 98% Peptide
Void Vol (HPLC) [5]: 2% Void Vol
Peptide (HPLC) (Cys Challenge, 19.5 hr): 89% Peptide
Void Vol (HPLC) (Cys Challenge, 19.5 hr): 11% Void Vol
Origin (ITLC 24 hr Saturated NaCl) (Kit Room Temp.): 94% Origin
Solvent Front (ITLC 24 hr Saturated NaCl) (Kit Room Temp.): 5% Solvent Front
Peptide (HPLC) (Kit Room Temp., 3 hr): 99% Peptide
Void Vol (HPLC) (Kit Room Temp., 3 hr): 1% Void Vol
Peptide (HPLC) (Kit Room Temp., 21 hr): 95% Peptide
Void Vol (HPLC) (Kit Room Temp., 21 hr): 5% Void Vol
Peptide (HPLC) (Kit Room Temp., Initial Label): 99% Peptide
Void Vol (HPLC) (Kit Room Temp., Initial Label): 1% Void Vol
Origin (ITLC 24 hr Saturated NaCl) (Saline Dilution Room Temp.): 97% Origin
Solvent Front (ITLC 24 hr Saturated NaCl) (Saline Dilution Room Temp.): 2.3% Solvent
Peptide (HPLC) [6]: 96% Peptide
Void Vol (HPLC) [6]: 4% Void Vol
Peptide (HPLC) [7]: 99% Peptide
Void Vol (HPLC) [7]: 1% Void Vol
tissue uptake at 3 h ([1]; Kidney): 2.6 ± 0.9 %ID/g
tissue uptake at 3 h ([1]; Liver): 0.3 ± 0.07 %ID/g
tissue uptake at 3 h ([1]; Spleen): 0.1 ± 0.05 %ID/g
tissue uptake at 2 h ([2]; BALB/c, mouse, large intestine, total radioactivity, Lg.Int., 2 h): 1.53 ± 0.45 %ID/g
tissue uptake at 4 h ([2]; BALB/c, mouse, large intestine, total radioactivity, Lg.Int., 4 h): 1.58 ± 0.7 %ID/g
tissue uptake at 24 h ([2]; BALB/c, mouse, large intestine, total radioactivity, Lg.Int., 24 h): 0.15 ± 0.14 %ID/g
tissue uptake at 1 h ([2]; BALB/c, mouse, small intestine, total radioactivity, Small int, 1 h): 1.37 ± 0.75 %ID/g
tissue uptake at 2 h ([2]; BALB/c, mouse, small intestine, total radioactivity, Small int, 2 h): 0.6 ± 0.06 %ID/g
tissue uptake at 4 h ([2]; BALB/c, mouse, small intestine, total radioactivity, Small int, 4 h): 0.21 ± 0.09 %ID/g
tissue uptake at 24 h ([2]; BALB/c, mouse, small intestine, total radioactivity, Small int, 24 h): 0.03 ± 0.01 %ID/g
tissue uptake at 1 h ([2]; BALB/c, mouse, total radioactivity, Blood, 1 h): 0.3 ± 0.09 %ID/g
tissue uptake at 2 h ([2]; BALB/c, mouse, total radioactivity, Blood, 2 h): 0.21 ± 0.03 %ID/g
tissue uptake at 4 h ([2]; BALB/c, mouse, total radioactivity, Blood, 4 h): 0.14 ± 0.04 %ID/g
tissue uptake at 24 h ([2]; BALB/c, mouse, total radioactivity, Blood, 24 h): 0.05 ± 0.01 %ID/g
tissue uptake at 1 h ([2]; BALB/c, mouse, total radioactivity, Liver, 1 h): 0.27 ± 0.18 %ID/g
tissue uptake at 2 h ([2]; BALB/c, mouse, total radioactivity, Liver, 2 h): 0.22 ± 0.16 %ID/g
tissue uptake at 1 h ([2]; BALB/c, mouse, total radioactivity, Muscle, 1 h): 0.1 ± 0.06 %ID/g
tissue uptake at 2 h ([2]; BALB/c, mouse, total radioactivity, Muscle, 2 h): 0.05 %ID/g
tissue uptake at 4 h ([2]; BALB/c, mouse, total radioactivity, Muscle, 4 h): 0.03 ± 0.01 %ID/g
tissue uptake at 4 h ([2]; BALB/c, mouse, total radioactivity, Stomach, 4 h): 0.27 ± 0.33 %ID/g
tissue uptake at 24 h ([2]; BALB/c, mouse, total radioactivity, Stomach, 24 h): 0.02 ± 0.01 %ID/g
excreta dose per gram or mL at 1 h ([2]; BALB/c, mouse, total radioactivity, Urine, 1 h): 169 ± 95 %ID/g
excreta dose per gram or mL at 2 h ([2]; BALB/c, mouse, total radioactivity, Urine, 2 h): 57 ± 15 %ID/g
excreta dose per gram or mL at 4 h ([2]; BALB/c, mouse, total radioactivity, Urine, 4 h): 6.3 ± 4.53 %ID/g
excreta dose per gram or mL at 24 h ([2]; BALB/c, mouse, total radioactivity, Urine, 24 h): 0.2 ± 0.02 %ID/g
tissue uptake at 1 h ([2]; BALB/c, mouse, Kidney, 1 h): 4.16 ± 0.75 %ID/g
tissue uptake at 2 h ([2]; BALB/c, mouse, Kidney, 2 h): 4.05 ± 0.6 %ID/g
tissue uptake at 4 h ([2]; BALB/c, mouse, Kidney, 4 h): 3.21 ± 0.99 %ID/g
tissue uptake at 24 h ([2]; BALB/c, mouse, Kidney, 24 h): 1.21 ± 0.08 %ID/g
tissue uptake at 4 h ([2]; BALB/c, mouse, Liver, 4 h): 0.09 ± 0.02 %ID/g
tissue uptake at 24 h ([2]; BALB/c, mouse, Liver, 24 h): 0.04 %ID/g
tissue uptake at 1 h ([2]; BALB/c, mouse, Lungs, 1 h): 0.5 ± 0.23 %ID/g
tissue uptake at 2 h ([2]; BALB/c, mouse, Lungs, 2 h): 0.29 ± 0.08 %ID/g
tissue uptake at 4 h ([2]; BALB/c, mouse, Lungs, 4 h): 0.19 ± 0.04 %ID/g
tissue uptake at 24 h ([2]; BALB/c, mouse, Lungs, 24 h): 0.05 %ID/g
tissue uptake at 1 h ([2]; BALB/c, mouse, Spleen, 1 h): 0.08 ± 0.01 %ID/g
tissue uptake at 2 h ([2]; BALB/c, mouse, Spleen, 2 h): 0.09 ± 0.3 %ID/g
tissue uptake at 4 h ([2]; BALB/c, mouse, Spleen, 4 h): 0.05 ± 0.02 %ID/g
tissue uptake at 24 h ([2]; BALB/c, mouse, Spleen, 24 h): 0.03 ± 0.01 %ID/g
% ID/g ([2]; Muscle, 24 h): 0.00 ± 0.0 % ID/g
in vivo stability (activity excreted in urine, SE-HPLC with antibody) ([2]; urine from a mouse in a pretargeting experiment): appears to be the intact peptide
tissue uptake at 0.5 h ([3]; NCRNU nude, Kidney): 9.9 ± 6.1 %ID/g
tissue uptake at 0.5 h ([3]; NCRNU nude, Liver): 1.4 ± 0.3 %ID/g
tissue uptake at 1 h ([3]; NCRNU nude, Liver): 0.9 ± 0.2 %ID/g
tissue uptake at 3 h ([3]; NCRNU nude, Liver): 0.6 ± 0.1 %ID/g
tissue uptake at 0.5 h ([3]; NCRNU nude, Spleen): 1.2 ± 0.4 %ID/g
tissue uptake at 1 h ([3]; NCRNU nude, Spleen): 0.8 ± 0.2 %ID/g
tissue uptake at 3 h ([3]; NCRNU nude, Spleen): 0.5 ± 0.1 %ID/g
tissue uptake at 0.5 h ([3]; NCRNU nude, Tumor): 11.4 ± 4.8 %ID/g
tissue uptake at 1 h ([3]; NCRNU nude, Tumor): 14.3 ± 3.6 %ID/g
tissue uptake at 3 h ([3]; NCRNU nude, Tumor): 12.6 ± 5.2 %ID/g
tissue uptake at 24 h ([3]; NCRNU nude, Tumor): 8.7 ± 3.3 %ID/g
tissue uptake at 0.5 h ([3]; nude (Taconic NCRNU), Blood): 4.3 ± 1.2 %ID/g
tissue uptake at 1 h ([3]; nude (Taconic NCRNU), Blood): 3.5 ± 0.9 %ID/g
tissue uptake at 3 h ([3]; nude (Taconic NCRNU), Blood): 1.7 ± 0.4 %ID/g
tissue uptake at 24 h ([3]; nude (Taconic NCRNU), Blood): 0.6 ± 0.2 %ID/g
tissue uptake at 1 h ([3]; nude (Taconic NCRNU), Kidney): 4.6 ± 0.7 %ID/g
tissue uptake at 3 h ([3]; nude (Taconic NCRNU), Kidney): 2.4 ± 0.5 %ID/g
tissue uptake at 24 h ([3]; nude (Taconic NCRNU), Kidney): 1.2 ± 0.3 %ID/g
tissue uptake at 0.5 h ([3]; nude (Taconic NCRNU), Lungs): 4.2 ± 3.4 %ID/g
tissue uptake at 1 h ([3]; nude (Taconic NCRNU), Lungs): 3.6 ± 1.9 %ID/g
tissue uptake at 3 h ([3]; nude (Taconic NCRNU), Lungs): 1 ± 0.3 %ID/g
tissue uptake at 24 h ([3]; nude (Taconic NCRNU), Lungs): 0.3 ± 0.1 %ID/g
SMILES: CC(=O)N[C@@H](CCCCNC(=O)CN(CCN(CCN(CC(=O)O)CC(=O)O)CC(=O)O)CC(=O)O)C(=O)N[C@@H](Cc1ccc(O)cc1)C(=O)N[C@@H](CCCCNC(=O)CN(CCN(CCN(CC(=O)O)CC(=O)O)CC(=O)O)CC(=O)O)C(=O)N[C@@H](CCCCNC(=O)[C@H](CS)NC(=O)C=NNC(N)=S)C(N)=O [IMP 192, Ac-Lys(DTPA)-Tyr-Lys(DTPA)-Lys(Tscg-Cys)-NH2] (Ac-K(DTPA)YK(DTPA)K([Cys-X1])-NH2)

converted to the shorter retention time peak [4]: about 70%
SMILES: NC(=O)[C@H](CCCCNC(=O)CNC(=O)CCC(=O)NCCc1cnc[nH]1)NC(=O)[C@H](Cc1ccc(O)cc1)NC(=O)[C@H](CCCCNC(=O)CNC(=O)CCC(=O)NCCc1cnc[nH]1)NC(=O)[C@H](Cc1ccccc1)NC(=O)CN1CCN(CC(=O)O)CCN(CC(=O)O)CCN(CC(=O)O)CC1 [IMP 237, DOTA-Phe-Lys(HSG)-Tyr-Lys(HSG)-NH2] ({DOTA}-FK([Gly-Suc-NH(2-(imidazol-4-yl)ethyl)])YK([Gly-Suc-NH(2-(imidazol-4-yl)ethyl)])-NH2)
